Where a SMILES comes first, the peptide text is derived from it.
Columns and labels:
WNV strain Egypt 101 = format: cell-based, West Nile virus; conditions: 100 μg/ml, compared to the original peptide
DENV strain New Guinea-2 = format: cell-based, dengue virus

In the case of VATWHLDWSREFPLFLMNS [Scrambled WN83], the “inhibitory effect of scrambled peptide against WNV” value (WNV strain Egypt 101) is reported as “no inhibitory activity”.
CC[C@H](C)[C@H](NC(=O)[C@H](C)NC(=O)CNC(=O)[C@H](Cc1ccccc1)NC(=O)[C@@H](NC(=O)[C@H](CCC(N)=O)NC(=O)[C@H](Cc1c[nH]cn1)NC(=O)[C@H](CC(C)C)NC(=O)[C@H](C)NC(=O)[C@H](CCCCN)NC(=O)CNC(=O)[C@@H](NC(=O)[C@H](CO)NC(=O)[C@@H](NC(=O)[C@H](Cc1ccccc1)NC(=O)[C@@H](NC(=O)CNC(=O)CNC(=O)[C@H](CC(C)C)NC(=O)[C@H](CO)NC(=O)CNC(=O)[C@H](Cc1ccccc1)NC(=O)[C@H](CC(=O)O)NC(=O)[C@H](Cc1c[nH]c2ccccc12)NC(=O)[C@H](C)NC(=O)[C@@H](NC(=O)[C@H](CC(=O)O)NC(=O)CNC(=O)[C@H](CC(C)C)NC(=O)[C@@H](NC(=O)[C@H](C)NC(=O)[C@@H](N)CCSC)[C@@H](C)CC)[C@@H](C)O)C(C)C)[C@@H](C)O)[C@@H](C)CC)C(C)C)C(=O)N[C@@H](Cc1ccc(O)cc1)C(=O)O [DN59] (H-MAILGDTAWDFGSLGGVFTSIGKALHQVFGAIY-OH) was tested, and the “maximum inhibitory activity against DENV” value (DENV strain New Guinea-2; at 20 μM, dose-response, mean +/- SD, triplicate) was 100.0 +/- 0.5%.
With “YFIDTSGAIWGASHLTGVLFDFMGIQGGAVLAK [Scrambled DN59]” the “inhibitory effect of scrambled peptide against DENV” value (DENV strain New Guinea-2; 100 μg/ml, compared to the original peptide) was “no inhibitory activity”.

— article PMC1177995 (Virology Journal, 2005)
